Laboratory results reported in ChEMBL document CHEMBL1201862, “PubChem BioAssay data set” (2004).
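Briefly, cells in 96-well plates were exposed to five compound concentrations for 48 h, and endpoints were estimated by linear interpolation. Here, GI50 denotes the concentration required for 50% inhibition of growth.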 The source made the active and inactive calls. No stated cut-off is given here; in the data, active = GI50 up to about 1.1 µM and inactive = higher.

Columns and labels:
Assay in all cases: inhibition of tumour cell growth, NCI panel, 48 h
[1] = system: MDA-MB-435
[2] = system: MCF7
[3] = system: MDA-N
[4] = system: MDA-MB-231
[5] = system: DU-145
[6] = system: TK-10
[7] = system: NCI/ADR-RES
[8] = system: Hs-578T
[9] = system: SNB-19
[10] = system: UACC-257
[11] = system: RXF 393
[12] = system: SK-MEL-28
[13] = system: SNB-78
[14] = system: DLD-1
[15] = system: LXFL 529
[16] = system: DMS-273
[17] = system: SNB-75
[18] = system: M19-MEL
[19] = system: NCI-H522
[20] = system: DMS-114

Measured: GI50

CC1(C)N/C(=C\C=O)C(C)(C)N1O
inactive: [1] > 100 µM | [2] > 100 µM | [3] > 100 µM | [4] > 100 µM | [5] > 100 µM | [6] > 100 µM | [7] > 100 µM | [8] > 100 µM | [9] > 100 µM | [10] > 100 µM | [11] > 100 µM | [12] > 100 µM

CC1(C)CCc2ccc(OCCC(=O)O)cc2O1
inactive: [13] > 100 µM | [14] > 100 µM | [15] > 100 µM | [16] > 100 µM | [17] 83.4 µM | [18] > 100 µM | [19] > 100 µM | [20] > 100 µM
